Where only a bound is given, the exact number is not on record here.

The nature of experiment [1]: Cell-free Amplex Red/HRP assay with 10 μM H2O2 (H2O2 scavenging / HRP inhibition). Conditions: 10 μM H2O2, Amplex Red/HRP, read-out: Scavenging effect IC50 AR H2O2.
Experimental: This assay allows to detect H2O2 scavengers as well as HRP inhibitors. (iii) Another assay for determining antioxidant activity analyzes serial dilutions of compounds in the presence of free radical DPPH in methanol in transparent 96-well plates (200 μl/well). Absorbance was measured at 540 nm after 15 min incubation in the dark. All scavenging assays were performed with FlexStation 3 Multi-Mode Microplate Reader (Molecular Devices).
Another experiment deals with T1, human NOX1 (Homo sapiens, UniProt Q9Y5S8).
T1 construct: expressed in transfected cells; host or cells: CHO
T1 sequence (Q9Y5S8 1-564): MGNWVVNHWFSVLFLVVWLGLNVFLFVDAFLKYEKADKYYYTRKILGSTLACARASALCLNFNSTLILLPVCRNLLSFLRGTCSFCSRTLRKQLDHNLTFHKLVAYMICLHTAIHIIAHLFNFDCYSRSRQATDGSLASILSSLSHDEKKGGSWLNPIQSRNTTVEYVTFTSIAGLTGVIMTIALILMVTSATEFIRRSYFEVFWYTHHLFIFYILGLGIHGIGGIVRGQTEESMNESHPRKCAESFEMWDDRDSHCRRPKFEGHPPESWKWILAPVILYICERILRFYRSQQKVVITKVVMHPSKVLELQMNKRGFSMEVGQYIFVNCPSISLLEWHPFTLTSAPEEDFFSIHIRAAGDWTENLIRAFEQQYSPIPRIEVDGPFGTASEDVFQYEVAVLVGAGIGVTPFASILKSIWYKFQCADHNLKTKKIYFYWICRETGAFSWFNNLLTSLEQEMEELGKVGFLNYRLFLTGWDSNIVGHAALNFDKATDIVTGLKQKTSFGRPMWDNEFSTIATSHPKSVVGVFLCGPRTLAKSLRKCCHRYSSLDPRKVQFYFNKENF
T1 sequence (P13498 1-195 partner): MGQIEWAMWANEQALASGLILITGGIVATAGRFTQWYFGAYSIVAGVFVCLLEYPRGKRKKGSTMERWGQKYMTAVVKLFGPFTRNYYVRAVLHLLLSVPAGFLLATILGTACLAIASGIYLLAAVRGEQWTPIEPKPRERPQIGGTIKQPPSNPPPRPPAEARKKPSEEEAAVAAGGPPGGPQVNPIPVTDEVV
The experiment in a line: Amplex Red/HRP H2O2 detection in NOX1-expressing CHO cells. Format: cell-based. The following applies: PMA 0.1 μM, read-out: IC50 NOX1 (CHO) AR.

Experiment [2] concerns the target T2, NOX5 (Homo sapiens, UniProt Q96PH1).
T2 construct: expressed in transfected cells
T2 sequence (Q96PH1 19-737 isoform Q96PH1-3 limits assumed): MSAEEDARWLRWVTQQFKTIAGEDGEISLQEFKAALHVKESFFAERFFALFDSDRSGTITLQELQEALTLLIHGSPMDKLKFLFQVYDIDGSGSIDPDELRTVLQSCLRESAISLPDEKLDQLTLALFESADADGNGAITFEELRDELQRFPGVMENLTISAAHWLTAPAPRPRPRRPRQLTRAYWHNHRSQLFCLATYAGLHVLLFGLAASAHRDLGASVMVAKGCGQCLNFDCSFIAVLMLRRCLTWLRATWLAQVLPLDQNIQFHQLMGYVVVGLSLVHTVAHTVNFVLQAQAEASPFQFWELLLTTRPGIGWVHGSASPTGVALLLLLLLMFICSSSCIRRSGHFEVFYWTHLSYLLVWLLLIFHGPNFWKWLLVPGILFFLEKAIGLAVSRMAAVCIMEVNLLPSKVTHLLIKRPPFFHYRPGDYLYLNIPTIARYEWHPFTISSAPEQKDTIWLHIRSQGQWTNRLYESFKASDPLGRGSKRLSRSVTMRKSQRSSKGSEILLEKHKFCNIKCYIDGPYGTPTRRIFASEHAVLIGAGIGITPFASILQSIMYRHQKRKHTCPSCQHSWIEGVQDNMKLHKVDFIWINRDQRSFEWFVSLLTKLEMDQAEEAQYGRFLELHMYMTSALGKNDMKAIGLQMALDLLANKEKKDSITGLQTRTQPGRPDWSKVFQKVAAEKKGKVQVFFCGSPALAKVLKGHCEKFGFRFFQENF
The experiment in a line: Amplex Red/HRP H2O2 detection in NOX5-expressing HEK293 cells. The following applies: PMA 0.1 μM and ionomycin 1 μM, read-out: IC50 NOX5 (HEK) AR. In kind it is cell-based.

The next experiment deals with T3, DUOX2 (Homo sapiens, UniProt Q9NRD8).
T3 construct: expressed in transfected cells; host or cells: HEK293, selected with G418 and zeocin
The experiment in a line: Amplex Red/HRP H2O2 detection in DUOX2-expressing HEK293 cells. The following applies: PMA 0.1 μM and ionomycin 1 μM, read-out: IC50 DUOX2 (HEK) AR. In kind it is cell-based.

The target in experiment [3] is T2, NOX5. The experiment in a line: WST-1 O2•- detection in NOX5-expressing HEK293 cells. The following applies: WST-1, PMA 0.1 μM and ionomycin 1 μM; read-out: IC50 NOX5 (HEK) WST-1. Format: cell-based. In general terms: Formazan colour is commonly taken as a measure of viable cells.
For a further experiment, the target named is T4, NOX2 (Homo sapiens, UniProt P04839).
T4 sequence (P04839 2-570 limits assumed): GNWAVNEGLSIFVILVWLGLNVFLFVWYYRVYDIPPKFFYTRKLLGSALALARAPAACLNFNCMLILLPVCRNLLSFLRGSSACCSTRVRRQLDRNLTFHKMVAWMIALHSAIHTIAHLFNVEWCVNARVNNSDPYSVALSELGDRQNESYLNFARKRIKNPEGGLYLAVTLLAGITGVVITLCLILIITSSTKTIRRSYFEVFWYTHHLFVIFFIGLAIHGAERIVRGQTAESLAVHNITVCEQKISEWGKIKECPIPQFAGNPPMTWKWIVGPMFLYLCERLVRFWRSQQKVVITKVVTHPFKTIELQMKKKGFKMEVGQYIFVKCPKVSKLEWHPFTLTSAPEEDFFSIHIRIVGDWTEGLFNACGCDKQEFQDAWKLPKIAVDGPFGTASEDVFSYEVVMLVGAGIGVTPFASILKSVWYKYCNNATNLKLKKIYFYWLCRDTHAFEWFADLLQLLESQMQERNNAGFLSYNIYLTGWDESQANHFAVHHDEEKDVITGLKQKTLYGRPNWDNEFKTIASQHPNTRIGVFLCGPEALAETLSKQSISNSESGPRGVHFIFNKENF
T4 sequence (P13498 1-195 partner): T1 sequence (P13498 1-195 partner)
Kind of experiment: Amplex Red/HRP H2O2 detection in differentiated PLB-985 cells (NOX2).

T3 sequence (Q9NRD8 26-1548): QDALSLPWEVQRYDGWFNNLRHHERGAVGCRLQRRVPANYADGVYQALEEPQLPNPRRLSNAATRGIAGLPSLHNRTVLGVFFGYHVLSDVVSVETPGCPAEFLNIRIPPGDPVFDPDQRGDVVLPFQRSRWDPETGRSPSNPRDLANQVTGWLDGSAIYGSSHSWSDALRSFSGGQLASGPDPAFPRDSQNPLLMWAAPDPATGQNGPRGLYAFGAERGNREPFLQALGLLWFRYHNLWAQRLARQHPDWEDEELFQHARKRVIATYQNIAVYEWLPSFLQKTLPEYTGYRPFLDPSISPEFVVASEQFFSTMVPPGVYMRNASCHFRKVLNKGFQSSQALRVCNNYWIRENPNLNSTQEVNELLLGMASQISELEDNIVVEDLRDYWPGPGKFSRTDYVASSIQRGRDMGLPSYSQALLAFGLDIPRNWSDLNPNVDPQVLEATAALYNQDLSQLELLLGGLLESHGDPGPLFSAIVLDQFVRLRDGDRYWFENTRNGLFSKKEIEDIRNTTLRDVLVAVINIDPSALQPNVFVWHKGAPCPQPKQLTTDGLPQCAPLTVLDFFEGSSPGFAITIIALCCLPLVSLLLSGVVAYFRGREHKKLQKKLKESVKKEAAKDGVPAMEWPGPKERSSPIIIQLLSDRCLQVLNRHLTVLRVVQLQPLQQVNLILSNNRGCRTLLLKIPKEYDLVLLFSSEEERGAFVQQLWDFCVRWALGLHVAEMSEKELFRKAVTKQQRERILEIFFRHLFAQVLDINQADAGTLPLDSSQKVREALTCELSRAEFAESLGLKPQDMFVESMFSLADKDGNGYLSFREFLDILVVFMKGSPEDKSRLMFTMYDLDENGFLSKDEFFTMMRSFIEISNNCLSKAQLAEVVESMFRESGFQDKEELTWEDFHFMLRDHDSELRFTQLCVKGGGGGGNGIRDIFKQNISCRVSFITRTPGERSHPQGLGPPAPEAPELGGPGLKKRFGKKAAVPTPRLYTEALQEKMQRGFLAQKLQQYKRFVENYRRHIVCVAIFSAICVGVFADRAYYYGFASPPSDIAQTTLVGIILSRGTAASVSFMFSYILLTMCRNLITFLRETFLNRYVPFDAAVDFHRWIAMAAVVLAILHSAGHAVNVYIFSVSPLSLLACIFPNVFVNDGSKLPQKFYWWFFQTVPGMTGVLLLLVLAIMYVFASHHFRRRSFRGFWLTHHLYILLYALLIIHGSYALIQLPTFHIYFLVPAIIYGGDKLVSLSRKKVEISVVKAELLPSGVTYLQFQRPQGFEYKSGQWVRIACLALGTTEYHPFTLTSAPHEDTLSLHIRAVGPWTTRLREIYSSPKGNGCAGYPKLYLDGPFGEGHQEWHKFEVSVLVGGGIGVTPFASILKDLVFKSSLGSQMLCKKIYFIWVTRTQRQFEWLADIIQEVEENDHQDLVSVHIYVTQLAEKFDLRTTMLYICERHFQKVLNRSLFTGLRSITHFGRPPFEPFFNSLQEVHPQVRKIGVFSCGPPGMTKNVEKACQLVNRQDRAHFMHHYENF
T3 sequence (Q1HG44 whole entry partner): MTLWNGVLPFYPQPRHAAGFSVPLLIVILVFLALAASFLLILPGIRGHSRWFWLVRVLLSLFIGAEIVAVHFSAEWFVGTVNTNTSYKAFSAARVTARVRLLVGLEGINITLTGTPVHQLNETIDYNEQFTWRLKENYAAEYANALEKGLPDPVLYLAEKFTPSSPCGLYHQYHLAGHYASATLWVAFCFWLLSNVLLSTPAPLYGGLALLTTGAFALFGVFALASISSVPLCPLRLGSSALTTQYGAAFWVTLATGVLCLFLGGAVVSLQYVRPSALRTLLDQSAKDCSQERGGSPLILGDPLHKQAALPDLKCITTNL

A word on the IC50: it is the point on the concentration scale where inhibition reaches its midpoint. `c1ccc2c(c1)[I+]c1ccccc1-2` [DPI, diphenylene iodonium chloride]: in experiment [1], the IC50 is above 50 µM.
`O=c1c2ccccc2[se]n1-c1ccccc1` [Ebselen, ebselen]: the IC50 stood at 2.9 µM on human NOX1, 2.1 µM on NOX5 [2], 4.2 µM on DUOX2 and 3.3 µM in experiment [1].
As to `COc1cc(C(C)=O)ccc1O` [Apocynin, apocynin], the IC50 (at human NOX1; at NOX5 [2]; on NOX5 [3]; at DUOX2; in experiment [1]; against NOX2) was above 50 µM each time.
With `COc1cc(C(C)=O)cc(-c2cc(C(C)=O)cc(OC)c2O)c1O` [Diapocynin, diapocynin], the IC50 on human NOX1 is 32.7 µM; on NOX5 [2], 16.6 µM; on NOX5 [3], above 50 µM; on DUOX2 it was 21.7 µM; in experiment [1], 11.5 µM; on NOX2, 38.9 µM.
Regarding `Cc1c2c(=O)n(-c3ccccc3Cl)[nH]c2cc(=O)n1Cc1ccccn1` [GKT136901], the IC50 was 9.2 µM at human NOX1; 8 µM on NOX5 [2]; above 50 µM at NOX5 [3]; 9.8 µM on DUOX2; 1.9 µM in experiment [1]; 12.2 µM on NOX2.

The values above are taken from publication PMC6658998, “Pharmacological characterization of the seven human NOX isoforms and their inhibitors” (Redox Biology, 2019).
